The text below walks through data of patent publication US8574563B2 (Bristol-Myers Squibb Company, priority 2006, dated 2013).

In this assay the test system is HCV 1b-377-neo replicon cells. Description: HCV replicon assay, HCV 1b-377-neo replicon cells (1b FRET). It is filed as cell-based, Hepatitis C virus genotype 1b. Particulars: Hepatitis C virus, HCV 1b-377-neo replicon cells; HCV 1b genotype; read-out: EC50 range against HCV 1b (Table 2, Range). In outline: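 FRET-based replicon assay in HCV 1b-377-neo cells, including a comparison line carrying the NS5A Y2065H mutation that confers resistance to a reference compound.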

In general, EC50 refers to the concentration needed to bring the measured effect to its halfway point. On to `CCN(CC)[C@@H](C(=O)N1CCC[C@H]1c1nc(-c2ccc(-c3ccc(-c4cnc([C@@H]5CCCN5C(=O)[C@@](C)(NC(=O)OC)C(C)C)[nH]4)cc3)cc2)c[nH]1)c1ccccc1` [Example F43, methyl ((1S)-1-(((2S)-2-(5-(4′-(2-((2S)-1-((2R)-2-(diethylamino)-2-phenylacetyl)-2-pyrrolidinyl)-1H-imidazol-4-yl)-4-biphenylyl)-1H-imidazol-2-yl)-1-pyrrolidinyl)carbonyl)-1,2-dimethylpropyl)carbamate], for which the EC50 was 1 to 999 pM.
The value for `COC(=O)N[C@H](C(=O)N1CCC[C@H]1c1nc(-c2ccc(-c3ccc(-c4c[nH]c([C@@H]5CCCN5C(=O)[C@H](C)NC5CCOCC5)n4)cc3)cc2)c[nH]1)C(C)C` [Example F48, methyl ((1S)-2-methyl-1-(((2S)-2-(4-(4′-(2-((2S)-1-(N-(tetrahydro-2H-pyran-4-yl)-L-alanyl)-2-pyrrolidinyl)-1H-imidazol-4-yl)-4-biphenylyl)-1H-imidazol-2-yl)-1-pyrrolidinyl)carbonyl)propyl)carbamate] was 1 to 999 pM; that for `COC(=O)N[C@H](C(=O)N1CCC[C@H]1c1nc(-c2ccc(-c3ccc(-c4c[nH]c([C@@H]5CCCN5C(=O)[C@@H](NC5CCOCC5)C(C)C)n4)cc3)cc2)c[nH]1)C(C)C` [Example F49, methyl ((1S)-2-methyl-1-(((2S)-2-(4-(4′-(2-((2S)-1-(N-(tetrahydro-2H-pyran-4-yl)-L-valyl)-2-pyrrolidinyl)-1H-imidazol-4-yl)-4-biphenylyl)-1H-imidazol-2-yl)-1-pyrrolidinyl)carbonyl)propyl)carbamate] was 1000 to 99000 pM.
With `COC(=O)N[C@H](C(=O)N1CCC[C@H]1c1nc(-c2ccc(-c3ccc(-c4c[nH]c([C@@H]5CCCN5C(=O)CNC5CCOCC5)n4)cc3)cc2)c[nH]1)C(C)C` [Example F51, methyl ((1S)-2-methyl-1-(((2S)-2-(4-(4′-(2-((2S)-1-(N-(tetrahydro-2H-pyran-4-yl)glycyl)-2-pyrrolidinyl)-1H-imidazol-4-yl)-4-biphenylyl)-1H-imidazol-2-yl)-1-pyrrolidinyl)carbonyl)propyl)carbamate], the concentration for a half-maximal effect (EC50) was in the range of 1 to 999 pM.
The value for `COC(=O)N[C@H](C(=O)N1CCC[C@H]1c1nc(-c2ccc(-c3ccc(-c4c[nH]c([C@@H]5CCCN5C(=O)[C@H](NC5CCOCC5)C(C)C)n4)cc3)cc2)c[nH]1)C(C)C` [Example F52, methyl ((1S)-2-methyl-1-(((2S)-2-(4-(4′-(2-((2S)-1-(N-(tetrahydro-2H-pyran-4-yl)-D-valyl)-2-pyrrolidinyl)-1H-imidazol-4-yl)-4-biphenylyl)-1H-imidazol-2-yl)-1-pyrrolidinyl)carbonyl)propyl)carbamate] was 1 to 999 pM; that for `COC(=O)N[C@H](C(=O)N1CCC[C@H]1c1nc(-c2ccc(-c3ccc(-c4c[nH]c([C@@H]5CCCN5C(=O)[C@@H](C)NC5CCOCC5)n4)cc3)cc2)c[nH]1)C(C)C` [Example F53, methyl ((1S)-2-methyl-1-(((2S)-2-(4-(4′-(2-((2S)-1-(N-(tetrahydro-2H-pyran-4-yl)-D-alanyl)-2-pyrrolidinyl)-1H-imidazol-4-yl)-4-biphenylyl)-1H-imidazol-2-yl)-1-pyrrolidinyl)carbonyl)propyl)carbamate] was 1 to 999 pM; that for `COC(=O)N[C@H](C(=O)N1CCC[C@H]1c1nc(-c2ccc(-c3ccc(-c4c[nH]c([C@@H]5CCCN5C(=O)[C@@H](NC(=O)O[C@H]5CCOC5)C(C)C)n4)cc3)cc2)c[nH]1)C(C)C` [Example F54, (3S)-tetrahydro-3-furanyl ((1S)-1-(((2S)-2-(4-(4′-(2-((2S)-1-(N-(methoxycarbonyl)-L-valyl)-2-pyrrolidinyl)-1H-imidazol-4-yl)-4-biphenylyl)-1H-imidazol-2-yl)-1-pyrrolidinyl)carbonyl)-2-methylpropyl)carbamate] was 1 to 999 pM.
For `COC(=O)N[C@H](C(=O)N1CCC[C@H]1c1nc(-c2ccc(-c3ccc(-c4c[nH]c([C@@H]5CCCN5C(=O)[C@@H](NC(=O)OC5CCOCC5)C(C)C)n4)cc3)cc2)c[nH]1)C(C)C` [Example F55, tetrahydro-2H-pyran-4-yl ((1S)-1-(((2S)-2-(4-(4′-(2-((2S)-1-(N-(methoxycarbonyl)-L-valyl)-2-pyrrolidinyl)-1H-imidazol-4-yl)-4-biphenylyl)-1H-imidazol-2-yl)-1-pyrrolidinyl)carbonyl)-2-methylpropyl)carbamate], the half-maximal effective concentration (EC50) was 1 to 999 pM.
With `COC(=O)N[C@H](C(=O)N1CCC[C@H]1c1nc(-c2ccc(-c3ccc(-c4c[nH]c([C@@H]5CCCN5C(=O)[C@@H](NC(=O)O[C@@H]5CCOC5)C(C)C)n4)cc3)cc2)c[nH]1)C(C)C` [Example F56, (3R)-tetrahydro-3-furanyl ((1S)-1-(((2S)-2-(4-(4′-(2-((2S)-1-(N-(methoxycarbonyl)-L-valyl)-2-pyrrolidinyl)-1H-imidazol-4-yl)-4-biphenylyl)-1H-imidazol-2-yl)-1-pyrrolidinyl)carbonyl)-2-methylpropyl)carbamate] the figure was 1 to 999 pM; with `COC(=O)N[C@H](C(=O)N1CCC[C@H]1c1nc(-c2ccc(-c3ccc(-c4cnc([C@@H]5CCCN5C(=O)[C@H](NC(=O)OC)C5CCOCC5)[nH]4)cc3)cc2)c[nH]1)C(C)C` [Example F57, methyl ((1S)-1-(((2S)-2-(4-(4′-(2-((2S)-1-((2R)-2-((methoxycarbonyl)amino)-2-(tetrahydro-2H-pyran-4-yl)acetyl)-2-pyrrolidinyl)-1H-imidazol-5-yl)-4-biphenylyl)-1H-imidazol-2-yl)-1-pyrrolidinyl)carbonyl)-2-methylpropyl)carbamate], 1 to 999 pM; with `COC(=O)N[C@H](C(=O)N1CCC[C@H]1c1nc(-c2ccc(-c3ccc(-c4cnc([C@@H]5CCCN5C(=O)[C@@H](NC(=O)OC)C5CCOCC5)[nH]4)cc3)cc2)c[nH]1)C(C)C` [Example F58, methyl ((1S)-1-(((2S)-2-(4-(4′-(2-((2S)-1-((2S)-2-((methoxycarbonyl)amino)-2-(tetrahydro-2H-pyran-4-yl)acetyl)-2-pyrrolidinyl)-1H-imidazol-5-yl)-4-biphenylyl)-1H-imidazol-2-yl)-1-pyrrolidinyl)carbonyl)-2-methylpropyl)carbamate], 1 to 999 pM.
`CC(=O)N[C@H](C(=O)N1CCC[C@H]1c1nc(-c2ccc(-c3ccc(-c4c[nH]c([C@@H]5CCCN5C(=O)[C@@H](NC(C)=O)C(C)C)n4)cc3)cc2)c[nH]1)C(C)C` [Example F60, N-((1S)-1-(((2S)-2-(4-(4′-(2-((2S)-1-((2S)-2-acetamido-3-methylbutanoyl)-2-pyrrolidinyl)-1H-imidazol-4-yl)-4-biphenylyl)-1H-imidazol-2-yl)-1-pyrrolidinyl)carbonyl)-2-methylpropyl)acetamide]: the EC50 is 1 to 999 pM.
With `CCC(=O)N[C@H](C(=O)N1CCC[C@H]1c1nc(-c2ccc(-c3ccc(-c4c[nH]c([C@@H]5CCCN5C(=O)[C@@H](NC(=O)CC)C(C)C)n4)cc3)cc2)c[nH]1)C(C)C` [Example F61, N-((1S)-2-methyl-1-(((2S)-2-(4-(4′-(2-((2S)-1-((2S)-3-methyl-2-(propionylamino)butanoyl)-2-pyrrolidinyl)-1H-imidazol-4-yl)-4-biphenylyl)-1H-imidazol-2-yl)-1-pyrrolidinyl)carbonyl)propyl)propanamide] the figure was 1000 to 99000 pM.
